Measurements reported in PubChem BioAssay (NCI).
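1) Cells in 96-well plates. 2) Compound, 48 h, 5 concentrations. 3) Linear interpolation between surrounding doses. 4) Unreached endpoint = highest concentration. Here, GI50 denotes the concentration required for 50% inhibition of growth. TGI: total growth inhibition.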

Experiments:
Test in all cases: DTP human tumour cell line panel, 48 h
K-562 leukemia = system: K-562 leukemia
RXF 393 renal = system: RXF 393 renal
BT-549 breast = system: BT-549 breast
NCI-H522 lung = system: NCI-H522 lung
ACHN renal = system: ACHN renal
IGROV1 ovarian = system: IGROV1 ovarian
NCI-H23 lung = system: NCI-H23 lung
OVCAR-4 ovarian = system: OVCAR-4 ovarian
LOX IMVI melanoma = system: LOX IMVI melanoma
CCRF-CEM leukemia = system: CCRF-CEM leukemia
KM12 colon = system: KM12 colon
SK-MEL-28 melanoma = system: SK-MEL-28 melanoma
SF-295 CNS = system: SF-295 CNS
NCI-H460 lung = system: NCI-H460 lung
A549 NSCLC = system: A549 NSCLC
RPMI-8226 leukemia = system: RPMI-8226 leukemia
HL-60(TB) leukemia = system: HL-60(TB) leukemia
SW-620 colon = system: SW-620 colon
SN12C renal = system: SN12C renal
NCI/ADR-RES ovarian = system: NCI/ADR-RES ovarian
MDA-MB-435 = system: MDA-MB-435
786-0 renal = system: 786-0 renal
OVCAR-8 ovarian = system: OVCAR-8 ovarian
U251 CNS = system: U251 CNS
SF-268 CNS = system: SF-268 CNS
DU-145 prostate = system: DU-145 prostate
SNB-19 CNS = system: SNB-19 CNS
EKVX NSCLC = system: EKVX NSCLC
OVCAR-3 ovarian = system: OVCAR-3 ovarian
SF-539 CNS = system: SF-539 CNS
SK-MEL-2 melanoma = system: SK-MEL-2 melanoma
SK-MEL-5 melanoma = system: SK-MEL-5 melanoma
SK-OV-3 ovarian = system: SK-OV-3 ovarian
SNB-75 CNS = system: SNB-75 CNS
SR leukemia = system: SR leukemia
MDA-MB-231 breast = system: MDA-MB-231 breast
HOP-62 NSCLC = system: HOP-62 NSCLC
OVCAR-5 ovarian = system: OVCAR-5 ovarian
HT29 colon = system: HT29 colon
HCC-2998 colon = system: HCC-2998 colon
T-47D breast = system: T-47D breast
UACC-62 melanoma = system: UACC-62 melanoma
HOP-92 NSCLC = system: HOP-92 NSCLC
MOLT-4 leukemia = system: MOLT-4 leukemia
UO-31 renal = system: UO-31 renal
M14 melanoma = system: M14 melanoma
HCT-116 colon = system: HCT-116 colon
PC-3 prostate = system: PC-3 prostate
COLO 205 colon = system: COLO 205 colon
HCT-15 colon = system: HCT-15 colon
CAKI-1 renal = system: CAKI-1 renal
UACC-257 melanoma = system: UACC-257 melanoma
TK-10 renal = system: TK-10 renal
HS 578T breast = system: HS 578T breast
MCF7 breast = system: MCF7 breast
MALME-3M melanoma = system: MALME-3M melanoma
NCI-H226 lung = system: NCI-H226 lung

SMILES: O=S(=O)(Nc1cc(F)cc(F)c1)c1ccc(-c2cnc(C3CC3)o2)cc1
- GI50 (K-562 leukemia): 0.582 µM
- TGI (K-562 leukemia): > 100 µM
- GI50 (RXF 393 renal): 1.66 µM
- TGI (RXF 393 renal): 6.79 µM
- GI50 (BT-549 breast): 3.33 µM
- TGI (BT-549 breast): 46.7 µM
- GI50 (NCI-H522 lung): 2.03 µM
- TGI (NCI-H522 lung): 40.4 µM
- GI50 (ACHN renal): 4.92 µM
- TGI (ACHN renal): > 100 µM
- GI50 (IGROV1 ovarian): 2.01 µM
- TGI (IGROV1 ovarian): > 100 µM
- GI50 (NCI-H23 lung): 4.55 µM
- TGI (NCI-H23 lung): 77.1 µM
- GI50 (OVCAR-4 ovarian): 5.93 µM
- TGI (OVCAR-4 ovarian): 90.9 µM
- GI50 (LOX IMVI melanoma): 4.34 µM
- TGI (LOX IMVI melanoma): > 100 µM
- GI50 (CCRF-CEM leukemia): 2.44 µM
- TGI (CCRF-CEM leukemia): > 100 µM
- GI50 (KM12 colon): 0.869 µM
- TGI (KM12 colon): 32 µM
- GI50 (SK-MEL-28 melanoma): 13.3 µM
- TGI (SK-MEL-28 melanoma): > 100 µM
- GI50 (SF-295 CNS): 1.29 µM
- TGI (SF-295 CNS): 11.7 µM
- GI50 (NCI-H460 lung): 2.64 µM
- TGI (NCI-H460 lung): 21.4 µM
- GI50 (A549 NSCLC): 3.8 µM
- TGI (A549 NSCLC): > 100 µM
- GI50 (RPMI-8226 leukemia): 3.44 µM
- TGI (RPMI-8226 leukemia): 66.2 µM
- GI50 (HL-60(TB) leukemia): 2.12 µM
- TGI (HL-60(TB) leukemia): 13.8 µM
- GI50 (SW-620 colon): 1.12 µM
- TGI (SW-620 colon): > 100 µM
- GI50 (SN12C renal): 4.87 µM
- TGI (SN12C renal): 59.6 µM
- GI50 (NCI/ADR-RES ovarian): 1.7 µM
- TGI (NCI/ADR-RES ovarian): 68.1 µM
- GI50 (MDA-MB-435): 0.305 µM
- TGI (MDA-MB-435): 2.09 µM
- GI50 (786-0 renal): 5.05 µM
- TGI (786-0 renal): > 100 µM
- GI50 (OVCAR-8 ovarian): 4.31 µM
- TGI (OVCAR-8 ovarian): > 100 µM
- GI50 (U251 CNS): 3.28 µM
- TGI (U251 CNS): > 100 µM
- GI50 (SF-268 CNS): 6.73 µM
- TGI (SF-268 CNS): 48.8 µM
- GI50 (DU-145 prostate): 4.11 µM
- TGI (DU-145 prostate): > 100 µM
- GI50 (SNB-19 CNS): 3.73 µM
- TGI (SNB-19 CNS): > 100 µM
- GI50 (EKVX NSCLC): 5.31 µM
- TGI (EKVX NSCLC): > 100 µM
- GI50 (OVCAR-3 ovarian): 1.57 µM
- TGI (OVCAR-3 ovarian): 15.6 µM
- GI50 (SF-539 CNS): 2.52 µM
- TGI (SF-539 CNS): 14.6 µM
- GI50 (SK-MEL-2 melanoma): 4.51 µM
- TGI (SK-MEL-2 melanoma): 41.6 µM
- GI50 (SK-MEL-5 melanoma): 3.27 µM
- TGI (SK-MEL-5 melanoma): 13.1 µM
- GI50 (SK-OV-3 ovarian): 3.8 µM
- TGI (SK-OV-3 ovarian): 42 µM
- GI50 (SNB-75 CNS): 1.05 µM
- TGI (SNB-75 CNS): 3.98 µM
- GI50 (SR leukemia): 0.513 µM
- TGI (SR leukemia): > 100 µM
- GI50 (MDA-MB-231 breast): 6.46 µM
- TGI (MDA-MB-231 breast): 41.7 µM
- GI50 (HOP-62 NSCLC): 2.6 µM
- TGI (HOP-62 NSCLC): 33.6 µM
- GI50 (OVCAR-5 ovarian): 6.12 µM
- TGI (OVCAR-5 ovarian): > 100 µM
- GI50 (HT29 colon): 1.76 µM
- TGI (HT29 colon): 12.9 µM
- GI50 (HCC-2998 colon): 5.62 µM
- TGI (HCC-2998 colon): 44.2 µM
- GI50 (T-47D breast): 3.08 µM
- TGI (T-47D breast): 79.9 µM
- GI50 (UACC-62 melanoma): 0.94 µM
- TGI (UACC-62 melanoma): 20 µM
- GI50 (HOP-92 NSCLC): 1.68 µM
- TGI (HOP-92 NSCLC): 11.4 µM
- GI50 (MOLT-4 leukemia): 3.73 µM
- TGI (MOLT-4 leukemia): > 100 µM
- GI50 (UO-31 renal): 4.69 µM
- TGI (UO-31 renal): > 100 µM
- GI50 (M14 melanoma): 1.85 µM
- TGI (M14 melanoma): > 100 µM
- GI50 (HCT-116 colon): 3.04 µM
- TGI (HCT-116 colon): > 100 µM
- GI50 (PC-3 prostate): 1.99 µM
- TGI (PC-3 prostate): > 100 µM
- GI50 (COLO 205 colon): 2.08 µM
- TGI (COLO 205 colon): 12.3 µM
- GI50 (HCT-15 colon): 0.702 µM
- TGI (HCT-15 colon): 47.9 µM
- GI50 (CAKI-1 renal): 1.19 µM
- TGI (CAKI-1 renal): 38.4 µM
- GI50 (UACC-257 melanoma): 12.3 µM
- TGI (UACC-257 melanoma): 52.9 µM
- GI50 (TK-10 renal): 8.65 µM
- TGI (TK-10 renal): 68.7 µM
- GI50 (HS 578T breast): 1.83 µM
- TGI (HS 578T breast): 8.6 µM
- GI50 (MCF7 breast): 1.45 µM
- TGI (MCF7 breast): > 100 µM
- GI50 (MALME-3M melanoma): 2.98 µM
- TGI (MALME-3M melanoma): 70.1 µM
- GI50 (NCI-H226 lung): 3.88 µM
- TGI (NCI-H226 lung): 53 µM
